According to US11066396B2 (priority 2016, dated 2021):

Experiments:
HDAC1 = HDAC1 (Homo sapiens (Human), UniProt Q13547); conditions: read-out: HDAC1 IC50
HDAC8 = HDAC8 (Homo sapiens (Human), UniProt Q9BY41); conditions: read-out: HDAC8 IC50
Chain of HDAC8 (Q9BY41 whole entry): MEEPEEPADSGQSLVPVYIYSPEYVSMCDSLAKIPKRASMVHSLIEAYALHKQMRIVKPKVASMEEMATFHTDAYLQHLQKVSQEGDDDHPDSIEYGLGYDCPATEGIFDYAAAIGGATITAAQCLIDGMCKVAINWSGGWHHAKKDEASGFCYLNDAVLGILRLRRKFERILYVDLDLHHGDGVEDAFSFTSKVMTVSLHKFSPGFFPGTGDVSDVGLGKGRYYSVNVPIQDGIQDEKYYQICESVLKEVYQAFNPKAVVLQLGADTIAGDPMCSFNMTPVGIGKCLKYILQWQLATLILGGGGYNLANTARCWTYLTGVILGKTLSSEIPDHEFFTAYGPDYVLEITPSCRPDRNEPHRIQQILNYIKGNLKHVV

Chain of HDAC1 (Q13547 whole entry): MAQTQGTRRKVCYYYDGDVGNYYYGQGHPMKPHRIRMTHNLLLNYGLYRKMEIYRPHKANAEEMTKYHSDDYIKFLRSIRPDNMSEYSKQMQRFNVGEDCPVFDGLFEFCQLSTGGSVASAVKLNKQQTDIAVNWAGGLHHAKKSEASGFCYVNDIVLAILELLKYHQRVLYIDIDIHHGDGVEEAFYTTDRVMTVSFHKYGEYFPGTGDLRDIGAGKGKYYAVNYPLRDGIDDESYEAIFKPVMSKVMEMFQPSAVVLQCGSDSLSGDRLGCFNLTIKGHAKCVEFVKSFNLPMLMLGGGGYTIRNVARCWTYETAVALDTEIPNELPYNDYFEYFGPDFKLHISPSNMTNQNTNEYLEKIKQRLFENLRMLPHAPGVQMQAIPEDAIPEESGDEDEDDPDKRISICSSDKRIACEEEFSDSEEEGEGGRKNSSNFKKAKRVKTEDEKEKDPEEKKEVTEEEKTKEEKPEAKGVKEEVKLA

## O=C1CCC(c2ccc(-c3noc(C(F)(F)F)n3)cc2)N1c1ccccc1F (racemic) [Example 320, 1-(2-fluorophenyl)-5-{4-[5-(trifluoromethyl)-1,2,4-oxadiazol-3-yl]phenyl}pyrrolidin-2-one]
HDAC1
  IC50: 880 nM
HDAC8
  IC50: 12000 nM

## CC1(Cc2ccc(-c3noc(C(F)(F)F)n3)cc2)C(=O)Nc2ccc(F)cc21 (racemic) [Example 346, 5-fluoro-3-methyl-3-{4-[5-(trifluoromethyl)-1,2,4-oxadiazol-3-yl]benzyl}-1,3-dihydro-2H-indol-2-one]
HDAC1
  IC50: 1200 nM
HDAC8
  IC50: 15000 nM

## Cc1nc2c(c(=O)[nH]1)CC(NCc1ccc(-c3noc(C(F)(F)F)n3)cc1)CC2 (racemic) [Example 350, 2-methyl-6-[({4-[5-(trifluoromethyl)-1,2,4-oxadiazol-3-yl]phenyl}methyl)amino]-5,6,7,8-tetrahydroquinazolin-4(3H)-one]
HDAC1
  IC50: 1200 nM
HDAC8
  IC50: 250 nM

## FC(F)(F)c1nc(-c2ccc(CNC3CCc4ncccc4C3)cc2)no1 (racemic) [Example 351, N-({4-[5-(trifluoromethyl)-1,2,4-oxadiazol-3-yl]phenyl}methyl)-5,6,7,8-tetrahydroquinolin-6-amine]
HDAC1
  IC50: 520 nM
HDAC8
  IC50: 680 nM

## FC(F)(F)c1nc(-c2ccc(CNC3CCc4[nH]nc(C(F)(F)F)c4C3)cc2)no1 (racemic) [Example 353, 3-(trifluoromethyl)-N-({4-[5-(trifluoromethyl)-1,2,4-oxadiazol-3-yl]phenyl}methyl)-4,5,6,7-tetrahydro-1H-indazol-5-amine]
HDAC1
  IC50: 410 nM
HDAC8
  IC50: 900 nM

## FC(F)(F)c1nc(-c2ccc(CNC3CCN(c4ncccn4)C3)cc2)no1 (racemic) [Example 354, 1-(pyrimidin-2-yl)-N-({4-[5-(trifluoromethyl)-1,2,4-oxadiazol-3-yl]phenyl}methyl)pyrrolidin-3-amine]
HDAC1
  IC50: 1600 nM
HDAC8
  IC50: 680 nM

## FC(F)(F)c1nc(-c2ccc(CNC3CCc4ncccc4C3)nc2)no1 (racemic) [Example 371, N-({5-[5-(trifluoromethyl)-1,2,4-oxadiazol-3-yl]pyridin-2-yl}methyl)-5,6,7,8-tetrahydroquinolin-6-amine]
HDAC1
  IC50: 450 nM
HDAC8
  IC50: 1600 nM

## Cc1n[nH]c2c1CC(NCc1ccc(-c3noc(C(F)(F)F)n3)cn1)CC2 (racemic) [Example 372, 3-methyl-N-({5-[5-(trifluoromethyl)-1,2,4-oxadiazol-3-yl]pyridin-2-yl}methyl)-4,5,6,7-tetrahydro-1H-indazol-5-amine]
HDAC1
  IC50: 400 nM
HDAC8
  IC50: 2900 nM

## O=C1NCCc2ccccc2C1NCc1ccc(-c2noc(C(F)(F)F)n2)cn1 (racemic) [Example 373, 1-[({5-[5-(trifluoromethyl)-1,2,4-oxadiazol-3-yl]pyridin-2-yl}methyl)amino]-1,3,4,5-tetrahydro-2H-3-benzazepin-2-one]
HDAC1
  IC50: 1300 nM
HDAC8
  IC50: 2800 nM

## O=C1CCC(NCc2ccc(-c3noc(C(F)(F)F)n3)cn2)c2ccccc2N1 (racemic) [Example 374, 5-[({5-[5-(trifluoromethyl)-1,2,4-oxadiazol-3-yl]pyridin-2-yl}methyl)amino]-1,3,4,5-tetrahydro-2H-1-benzazepin-2-one]
HDAC1
  IC50: 3200 nM
HDAC8
  IC50: 6900 nM

## O=C1Nc2ccccc2CC1NCc1ccc(-c2noc(C(F)(F)F)n2)cn1 (racemic) [Example 375, 3-[({5-[5-(trifluoromethyl)-1,2,4-oxadiazol-3-yl]pyridin-2-yl}methyl)amino]-3,4-dihydroquinolin-2(1H)-one]
HDAC1
  IC50: 1000 nM
HDAC8
  IC50: 2600 nM

## O=C1NCCCCC1NCc1ccc(-c2noc(C(F)(F)F)n2)cn1 (racemic) [Example 377, 3-[({5-[5-(trifluoromethyl)-1,2,4-oxadiazol-3-yl]pyridin-2-yl}methyl)amino]azepan-2-one]
HDAC1
  IC50: 7300 nM
HDAC8
  IC50: 3300 nM

## O=C1CCC(NCc2ccc(-c3noc(C(F)(F)F)n3)cn2)c2ccccc2N1 (racemic) [Example 381, 5-[({5-[5-(trifluoromethyl)-1,2,4-oxadiazol-3-yl]pyridin-2-yl}methyl)amino]-1,3,4,5-tetrahydro-2H-1-benzazepin-2-one]
HDAC1
  IC50: 520 nM
HDAC8
  IC50: 3900 nM

## CC(C(=O)N(Cc1ccc(-c2noc(C(F)(F)F)n2)cn1)c1cccc(F)c1)n1cccn1 (racemic) [Example 389, N-(3-fluorophenyl)-2-(1H-pyrazol-1-yl)-N-({5-[5-(trifluoromethyl)-1,2,4-oxadiazol-3-yl]pyridin-2-yl}methyl)propanamide]
HDAC1
  IC50: 300 nM
HDAC8
  IC50: 1600 nM

## Cc1nccn1C(C)C(=O)N(Cc1ccc(-c2noc(C(F)(F)F)n2)cn1)c1cccc(F)c1 (racemic) [Example 390, N-(3-fluorophenyl)-2-(2-methyl-1H-imidazol-1-yl)-N-({5-[5-(trifluoromethyl)-1,2,4-oxadiazol-3-yl]pyridin-2-yl}methyl)propanamide]
HDAC1
  IC50: 430 nM
HDAC8
  IC50: 1700 nM

## O=C(CC1CCS(=O)(=O)C1)N(Cc1ccc(-c2noc(C(F)(F)F)n2)cn1)c1cccc(F)c1 (racemic) [Example 398, 2-(1,1-dioxidotetrahydrothiophen-3-yl)-N-(3-fluorophenyl)-N-({5-[5-(trifluoromethyl)-1,2,4-oxadiazol-3-yl]pyridin-2-yl}methyl)acetamide]
HDAC1
  IC50: 410 nM
HDAC8
  IC50: 2300 nM

## CN1CC(C(=O)N(Cc2ccc(-c3noc(C(F)(F)F)n3)cn2)c2cccc(F)c2)CCC1=O (racemic) [Example 402, N-(3-fluorophenyl)-1-methyl-6-oxo-N-({5-[5-(trifluoromethyl)-1,2,4-oxadiazol-3-yl]pyridin-2-yl}methyl)piperidine-3-carboxamide]
HDAC1
  IC50: 340 nM
HDAC8
  IC50: 2600 nM

## CN1CCC(C(=O)N(Cc2ccc(-c3noc(C(F)(F)F)n3)cn2)c2cccc(F)c2)C1 (racemic) [Example 403, N-(3-fluorophenyl)-1-methyl-N-({5-[5-(trifluoromethyl)-1,2,4-oxadiazol-3-yl]pyridin-2-yl}methyl)pyrrolidine-3-carboxamide]
HDAC1
  IC50: 250 nM
HDAC8
  IC50: 2000 nM

## O=C(C1CCCS(=O)(=O)C1)N(Cc1ccc(-c2noc(C(F)(F)F)n2)cn1)c1cccc(F)c1 (racemic) [Example 405, N-(3-fluorophenyl)-N-({5-[5-(trifluoromethyl)-1,2,4-oxadiazol-3-yl]pyridin-2-yl}methyl)tetrahydro-2H-thiopyran-3-carboxamide 1,1-dioxide]
HDAC1
  IC50: 220 nM
HDAC8
  IC50: 1600 nM

## O=C1N(CC2CCOCC2)CC(c2ccccc2)N1c1ccc(-c2noc(C(F)(F)F)n2)cc1 (racemic) [Example 422, 4-phenyl-1-(tetrahydro-2H-pyran-4-ylmethyl)-3-{4-[5-(trifluoromethyl)-1,2,4-oxadiazol-3-yl]phenyl}imidazolidin-2-one]
HDAC1
  IC50: 3400 nM
HDAC8
  IC50: 4000 nM

## FC(COc1cc(-c2noc(C(F)(F)F)n2)ccn1)CN1CCOCC1 (racemic) [Example 427, 4-[2-fluoro-3-({4-[5-(trifluoromethyl)-1,2,4-oxadiazol-3-yl]pyridin-2-yl}oxy)propyl]morpholine]
HDAC1
  IC50: 5100 nM
HDAC8
  IC50: 1000 nM

## CC(C)N1CCC(NCc2ccc(-c3noc(C(F)(F)F)n3)cn2)C1=O (racemic) [Example 435, 1-(1-methylethyl)-3-[({5-[5-(trifluoromethyl)-1,2,4-oxadiazol-3-yl]pyridin-2-yl}methyl)amino]pyrrolidin-2-one]
HDAC1
  IC50: 4400 nM
HDAC8
  IC50: 4600 nM
